{
  "source": "patent US9320748B2",
  "about": "“Immunologically useful arginine salts” (Novartis AG, priority 2012, dated 2016)",
  "key": {"[1]": {"experiment": "Photo-stability of bulk solid", "format": "physicochemical", "conditions": "irradiated 1.2 million lux-hours, 40° C., 36 hours", "description": "The L-arginine salt formed via the above method was tested for thermal- and photo-stability. For comparative purposes, the free base and the ammonium salt were also tested.\nThe bulk ammonium and arginine salts and the bulk free base of the compound of formula (I) were tested for photo-stability by being irradiated (1.2 million lux-hours), at 40° C. for a period of 36 hours."}, "[2]": {"experiment": "Photo-stability in 50 mM phosphate buffer solution", "format": "physicochemical", "conditions": "50 mM phosphate buffer pH 6.8; irradiated 1.2 million lux-hours, 40° C., 36 hours", "description": "The L-arginine salt formed via the above method was tested for thermal- and photo-stability. For comparative purposes, the free base and the ammonium salt were also tested. The arginine salt and the bulk free base of the compound of formula (I) were also tested for photo-stability in a solution of 50 mM phosphate buffer (pH 6.8) by being irradiated (1.2 million lux-hours), at 40° C. for a period of 36 hours. […] The ammonium salt was not tested."}, "[3]": {"experiment": "Thermal-stability at physiological pH", "format": "physicochemical", "conditions": "for degradation (thermal-stability): physiological pH (7.4), 80° C., 7 days", "description": "The L-arginine salt formed via the above method was tested for thermal- and photo-stability. For comparative purposes, the free base and the ammonium salt were also tested. The bulk ammonium and arginine salts and the bulk free base of the compound of formula (I) were also tested for thermal-stability at physiological pH (7.4) by heating at 80° C. for 7 days. […] This renders the ammonium salt unsuitable for use in pharmaceutical formulation and long term storage."}, "[4]": {"experiment": "Dynamic vapour sorption (DVS) water sorption", "format": "physicochemical", "conditions": "90% relative humidity", "description": "Dynamic vapour sorption (DVS) experiments were conducted on the L-arginine salt obtained via the above method. […] The free base is also shown for comparison (●). DSC analysis of the arginine salt following DVS treatment was also conducted and the results pre- (♦) and post-DVS (▪) treatment are shown in FIG. 4. The free base is also shown for comparison (●). […] No form change is noted by the XRPD."}, "[5]": {"experiment": "Adsorption to aluminium phosphate adjuvant", "format": "physicochemical", "description": "Adsorption of a L-arginine salt of the compound of formula (I) to a commercially-available aluminium phosphate adjuvant yielded an adsorption efficiency of 97% (as found by recovering the compound of formula (I) on desorption). […] However, the adsorption remained >90% when the aluminium phosphate adjuvant was treated with 10 mM potassium phosphate.\nOne formulation was prepared with 0.4 mg/ml of the compound of formula (I) of the L-arginine salt and 3 mg/ml of aluminium phosphate (expressed as Al^3+ concentration), 10 mM of histidine buffer (pH 6.5). Aluminium phosphate was treated overnight with various concentrations of potassium phosphate (10 mM, 50 mM, 100 mM, 250 mM and 500 mM) before the compound of formula (I) of the arginine salt was incubated with the aluminium phosphate."}, "[6]": {"experiment": "Adsorption to aluminium hydroxide (RP-HPLC)", "format": "physicochemical", "conditions": "1 mg/ml on 3 mg/ml aluminium hydroxide", "description": "The adsorption efficiency of the compound was determined by RP-HPLC as being 99%."}, "[7]": {"experiment": "Adsorption to calcium phosphate adjuvant", "format": "physicochemical", "conditions": "pH 6.4, no histidine buffer, 1.12 mg/ml Ca2+", "description": "Adsorption of a L-arginine salt of the compound of formula (I) to a commercially-available calcium phosphate adjuvant was studied at pH 6.4, without histidine buffer. Two formulations are prepared, both with 1.12 mg/ml Ca^2+ but with either 0.25 mg/ml or 0.125 mg/ml of the arginine salt. Adsorption was around 90% for both formulations."}, "[8]": {"tested_on": "respiratory syncytial virus (RSV)", "experiment": "Anti-RSV titers after immunisation with trimeric F glycoprotein", "format": "in vivo, Balb/C mice", "conditions": "3 weeks after first dose; 1, 5, 50 μg SMIP adsorbed to Al—H, 3 μg F glycoprotein", "description": "Trimeric F glycoprotein (3 μg) of respiratory syncytial virus (RSV) is formulated with the compound of formula (I) as a free base or as the arginine salt (1 μg, 5 μg, 50 μg) adsorbed to Al—H. For comparison the IC31™ adjuvant is also tested. Balb/C mice (6 per group) are immunized at days 0 and 21 and immune responses are assessed."}, "in vivo": {"experiment": "in vivo", "conditions": "mouse, im, 4 mg/kg", "description": "A single dose of two different formulations (one containing the free base and the other the L-arginine salt of the compound of formula (I)) adsorbed to Al—H in 10 mM histidine buffer and in the presence of 3 MenB antigens were administered intramuscularly to mice at a dose of 4 mg/kg."}, "[9]": {"experiment": "Effect of Al—H adsorption on serum peak and injection-site residence", "format": "in vivo", "conditions": "adsorbed on Al—H versus non-adsorbed; mice and rats", "from_the_text": "Adsorption of the compound of formula (I) on Al—H reduced its peak serum concentrations and increased residence times at sites of intramuscular injection, as found for mice and rats preclinical species. This contributes greatly on modifying and controlling the level of systemic exposure avoiding the potential problem of proinflammatory cytokines in the blood, improving safety and/or tolerability of the compounds of formula (I)."}},
  "note": "Where “and” joins values, the source holds several entries; their conditions need not be identical. Equal values may be shown once. Where a name gives a salt, the structure may show the parent alone.",
  "data": [
    {"smiles": "Cc1cc(OCCOCCOCCP(=O)(O)O)ccc1CCc1cnc2c(N)nc3cc(CCC(=O)O)ccc3c2c1", "note": "[ammonium salt]", "values": [
      {"measurement": "degradation (photo-stability)", "setting": "[1]", "value": 4.6, "unit": "%"}
    ]},
    {"smiles": "Cc1cc(OCCOCCOCCP(=O)(O)O)ccc1CCc1cnc2c(N)nc3cc(CCC(=O)O)ccc3c2c1", "note": "[arginine salt, arginine salt of 3-(5-amino-2-(2-methyl-4-(2-(2-(2-phosphonoethoxyl)ethoxy)ethoxy)phenethyl)benzo[f][1,7]naphthyridin-8-yl)propanoic acid]", "values": [
      {"measurement": "degradation (photo-stability)", "setting": "[1]", "value": 9.7, "unit": "%"},
      {"measurement": "degradation (photo-stability in solution)", "setting": "[2]", "value": 9.8, "unit": "%"},
      {"measurement": "stability at high temperatures, compared with other form", "setting": "[3]; high temperatures (80° C.), as in autoclaving", "value": "more stable than the ammonium salt"},
      {"measurement": "degradation (thermal-stability)", "setting": "[3]", "value": 0.1, "unit": "%"},
      {"measurement": "water taken on (DVS)", "setting": "[4]", "value": "approximately 18%"},
      {"measurement": "water taken on (DVS)", "setting": "[4]; 4 g sample", "value": "approximately 13.71%"},
      {"measurement": "% Adsorption", "setting": "[5]; aluminium phosphate pre-treated with 10 mM potassium phosphate, listed as L-arginine salt", "value": "93 ± 1", "unit": "%"},
      {"measurement": "% Adsorption", "setting": "[5]; aluminium phosphate pre-treated with 50 mM potassium phosphate", "value": "81.6 ± 0.1", "unit": "%"},
      {"measurement": "% Adsorption", "setting": "[5]; aluminium phosphate pre-treated with 100 mM potassium phosphate", "value": "60 ± 2", "unit": "%"},
      {"measurement": "% Adsorption", "setting": "[5]; aluminium phosphate pre-treated with 250 mM potassium phosphate", "value": "52 ± 0.1", "unit": "%"},
      {"measurement": "% Adsorption", "setting": "[5]; aluminium phosphate pre-treated with 500 mM potassium phosphate", "value": "65 ± 4", "unit": "%"},
      {"measurement": "% Adsorption", "setting": "[5]; aluminium phosphate, no potassium phosphate pre-treatment (0 mM), 0.4 mg/ml compound, 3 mg/ml Al3+, 10 mM histidine pH 6.5, listed as L-arginine salt", "value": "97% and 97 ± 1%"},
      {"measurement": "adsorption efficiency", "setting": "[6]", "value": 99, "unit": "%"},
      {"measurement": "Adsorption", "setting": "[7]; 0.125 mg/ml arginine salt", "value": "around 90%"},
      {"measurement": "Adsorption", "setting": "[7]; 0.25 mg/ml arginine salt", "value": "around 90%"},
      {"measurement": "anti-RSV titers versus Al—H alone", "setting": "[8]", "value": "increased compared to Al—H alone"},
      {"measurement": "anti-RSV titers, arginine salt versus free base", "setting": "[8]", "value": "slightly higher titers than the free base"}
    ]},
    {"smiles": "Cc1cc(OCCOCCOCCP(=O)(O)O)ccc1CCc1cnc2c(N)nc3cc(CCC(=O)O)ccc3c2c1", "note": "[free base, 3-(5-amino-2-(2-methyl-4-(2-(2-(2-phosphonoethoxy)ethoxy)ethoxy)phenethyl)benzo[f][1,7]naphthyridin-8-yl)propanoic acid]", "values": [
      {"measurement": "degradation (photo-stability)", "setting": "[1]", "value": 12.36, "unit": "%"},
      {"measurement": "degradation (photo-stability in solution)", "setting": "[2]", "value": 23.1, "unit": "%"},
      {"measurement": "degradation (thermal-stability)", "setting": "[3]", "value": 18.1, "unit": "%"},
      {"measurement": "AUC(0-t)", "setting": "in vivo", "value": 4.54, "unit": "µM·h"},
      {"measurement": "Cmax", "setting": "in vivo", "value": 453, "unit": "nM"},
      {"measurement": "Tmax", "setting": "in vivo", "value": 0.67, "unit": "h"},
      {"measurement": "half-life", "setting": "in vivo", "value": 8.48, "unit": "h"},
      {"measurement": "peak serum concentrations", "setting": "[9]", "value": "reduced"},
      {"measurement": "residence times at sites of intramuscular injection", "setting": "[9]", "value": "increased"},
      {"measurement": "anti-RSV titers versus Al—H alone", "setting": "[8]", "value": "increased compared to Al—H alone"}
    ]}
  ]
}
